# Measurements published in patent US10487087B2, “Positive allosteric modulators of the GLP-1 receptor” (Vanderbilt University, priority 2015, dated 2019).
# pEC50: −log10 of the molar value.
# Tests used:
# Type in all cases: cell-based
# human GLP-1R [1] = molecular target: T1, human GLP-1R (Homo sapiens (Human), UniProt P43220); experiment: GLP-1 assay with GLP1 endogenous agonist (calcium mobilization, EC20 GLP-1 peptide 7-36 amide); conditions: calcium flux; for Emax at 30 µM: 30 μM compound, EC20 of GLP-1 7-36 amide; for pEC50: potentiation of EC20 GLP-1 7-36 amide
# T1 sequence (P43220 24-463): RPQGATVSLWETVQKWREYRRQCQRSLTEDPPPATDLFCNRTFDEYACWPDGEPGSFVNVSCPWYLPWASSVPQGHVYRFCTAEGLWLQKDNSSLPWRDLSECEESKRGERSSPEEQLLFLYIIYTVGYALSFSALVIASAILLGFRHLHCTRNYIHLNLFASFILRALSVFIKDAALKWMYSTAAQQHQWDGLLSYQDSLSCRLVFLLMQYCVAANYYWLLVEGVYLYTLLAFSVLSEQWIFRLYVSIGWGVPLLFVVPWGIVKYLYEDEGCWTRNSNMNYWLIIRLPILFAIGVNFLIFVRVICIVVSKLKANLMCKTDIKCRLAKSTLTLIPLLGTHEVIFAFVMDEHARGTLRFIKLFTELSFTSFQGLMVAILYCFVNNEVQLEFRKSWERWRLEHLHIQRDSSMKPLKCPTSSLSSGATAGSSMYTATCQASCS
# Excerpt: A. GLP-1 Assay with GLP1 Endogenous Agonist
# (§1) To assess the effects of test compounds on GLP-1 or glucagon potency and efficacy, a high-throughput calcium mobilization assay was used essentially as previously described (Morris L C, Days E L, Turney M, Mi D, Lindsley C W, Weaver C D, Niswender K D, A Duplexed High-Throughput Screen to Identify Allosteric Modulators of the Glucagon-Like Peptide 1 and Glucagon Receptors. J. Biomol. Screen. 2014 Feb. 13, 19(6):847-858). Briefly, human GLP-1R or Glucagon Receptor 9-3-H cells over-expressing a promiscuous G-protein (Millipore, Billerica, Mass.) were plated at 15,000 cells/well in black-walled 384-well plates (Greiner Bio-one, Monroe, N.C.) in Dulbecco's Modified Eagles Medium (DMEM) with 10% FCS, 4.0 mM L-glutamine, non-essential amino acids (NEAAs), and 10.0 mM HEPES without antibiotics. After overnight attachment, cells were washed twice with assay buffer (HBSS supplemented with 20 mM HEPES and 1.0 mM probenecid) using an ELx405CW cell washer (Bio-Tek, Winooski, Vt.) and then loaded with the calcium sensitive dye fluo-4 AM (Invitrogen, Grand Island, N.Y.) at a final concentration of 2.0 μM in assay buffer. After a 45-minute incubation at room temperature, the dye was removed by washing, leaving 20 μL of assay buffer. Next, the cell plate was introduced alongside a 384-well compound plate containing 0.1% final DMSO control wells and 11-point concentration response curves of putative GLP-1 PAMs created using a non-pipet based liquid transfer instrument, ECH0555 (Labcyte, Sunnyvale, Calif.). After a 20 μL compound addition to the appropriate wells, kinetic fluorescent measurements were collected for 2 minutes using an FDSS6000 (Hamamatsu, Bridgewater, N.J.) with 488 nm excitation and 480/540 emission filters. After 2 minutes, 10 μL of an EC20 concentration of GLP-1 peptide 7-36 amide (Phoenix Pharmaceuticals, Burlingame, Calif.), Glucagon (Phoenix Pharmaceuticals, Burlingame, Calif.) Exendin-4 (Tocris Bioscience, Bristol, UK), or Liraglutide (Victoza™, Novo-Nordisk, Denmark) was added and fluorescence was monitored for an additional 2 minutes to observe potentiation of the calcium flux signal. […] Recombinant peptides were reconstituted into assay buffer supplemented with 0.1% fatty acid free BSA (Sigma #A6003) and diluted into borosilicate glass tubes to maximize peptide recovery (Goebel-Stengel M, Stengel A, Tache Y, Reeve J R Jr., The importance of using the optimal plasticware and glassware in studies involving peptides. Anal. Biochem. 2011 Jul. 1, 414(1):38-46).
# (§2) Data is from a single experiment unless otherwise noted. Data that is an average of two experiments is noted as “n=2” while data that is an average of three or more experiments is presented as the average plus or minus the standard error of the mean.
# human GLP-1R [2] = molecular target: T1, human GLP-1R; experiment: GLP-1 concentration response curves in the presence of fixed concentrations of PAM (GLP-1 induced calcium flux); conditions: 0 μM, 3 μM, 10 μM, 30 μM of compound; FIGS. 2A and 2B
# Excerpt: FIGS. 2A and 2B show a series of GLP-1 concentration response curves in the presence of fixed concentrations of an exemplary positive allosteric modulator (Compound 1).
# human GLP-1R [3] = molecular target: T1, human GLP-1R; experiment: GLP-1 assay with EX-4 synthetic agonist (calcium mobilization, EC20 EX-4); conditions: calcium flux; for Emax at 30 µM: 30 μM compound, EC20 of EX-4; for pEC50: potentiation of EC20 EX-4, read-out: GLP1 EC50 (Ex-4 synthetic agonist)
# Excerpt: B. GLP-1 Assay with EX-4 Synthetic Agonist
# as §1, with “L-glutamine, 1×” for “L-glutamine,”, “EL×405CW” for “ELx405CW”, “EX-4” for “GLP-1 peptide 7-36 amide”, “Taché” for “Tache”
# as §2
SMILES,Emax at 30 µM (human GLP-1R [1]) [%],pEC50 (human GLP-1R [1]),shift of GLP-1 concentration response curves / GLP-1 EC50 (human GLP-1R [2]),Emax at 30 µM (human GLP-1R [3]) [%],pEC50 (human GLP-1R [3])
"Cc1c2ccccc2n2c(C(=O)NC[C@@H]3CCCN3C(C)C)cn(C3CCCC3)c(=O)c12 [Compound 1, (S)-2-Cyclopentyl-N-((1-isopropylpyrrolidin-2-yl)methyl)-10-methyl-1-oxo-1,2-dihydropyrazino[1,2-a]indole-4-carboxamide]",57,5.57,leftward shift in the GLP-1 concentration response curves,59,5.34
"Cc1c2n(c3ccccc13)[C@H](C(=O)NC[C@@H]1CCCN1C(C)C)CN(C1CCCC1)C2=O [Compound 9, (S)-2-cyclopentyl-N-(((S)-1-isopropylpyrrolidin-2-yl)methyl)-10-methyl-1-oxo-1,2,3,4-tetrahydropyrazino[1,2-a]indole-4-carboxamide]",40,< 4.52,–,33,< 4.52
"CC(C)N1CCC[C@H]1CNC(=O)c1cn(C2CCCC2)c(=O)c2c(Cl)c3ccccc3n12 [Compound 10, (S)-10-chloro-2-cyclopentyl-N-((1-isopropylpyrrolidin-2-yl)methyl)-1-oxo-1,2-dihydropyrazino[1,2-a]indole-4-carboxamide]",61,5.89,–,57,5.82
"CC(C)N1CCC[C@@H]1CNC(=O)c1cn(C2CCCC2)c(=O)c2c(Cl)c3ccccc3n12 [Compound 11, (R)-10-chloro-2-cyclopentyl-N-((1-isopropylpyrrolidin-2-yl)methyl)-1-oxo-1,2-dihydropyrazino[1,2-a]indole-4-carboxamide]",44,< 4.52,–,–,< 4.52
"CC(C)N1CCC[C@H]1CNC(=O)c1cn(C2CCCC2)c(=O)c2c(Br)c3ccccc3n12 [Compound 12, (S)-10-bromo-2-cyclopentyl-N-((1-isopropylpyrrolidin-2-yl)methyl)-1-oxo-1,2-dihydropyrazino[1,2-a]indole-4-carboxamide]",53,5.66,–,59,5.44
"CC(C)N1CCC[C@@H]1CNC(=O)c1cn(C2CCCC2)c(=O)c2c(Br)c3ccccc3n12 [Compound 13, (R)-10-bromo-2-cyclopentyl-N-((1-isopropylpyrrolidin-2-yl)methyl)-1-oxo-1,2-dihydropyrazino[1,2-a]indole-4-carboxamide]",39,< 4.52,–,–,< 4.52
